According to article PMC12446565, “Perinatal Maturation of Drug Transporters and Claudin‐5 at the Blood–Brain Barrier” (CNS Neuroscience & Therapeutics, 2025):
Where two headings read alike, the source gives them in different places.

Tests used:
[1] = Swiss, mouse, in vivo
Procedure: (§1) Mice were then decapitated according to selected time points, with blood samples collected following decapitation. The brain was then removed from the skull. For each mouse, the brain hemispheres and two blood samples were weighed in Econo glass vials for liquid scintillation counting (Perkin Elmer). All samples were treated with a tissue solubilizer (Solvable, Perkin Elmer). Blood samples were in addition decolored with 0.2 mL of 30% hydrogen peroxide solution to avoid color quenching issues. After complete tissue sample digestion (24 h in a water bath at 45°C), the vials were cooled and mixed with Ultima‐gold XR (Perkin Elmer). The radioactivity in each vial, expressed in disintegrations per minute (dpm) for ^3H and ^14C, was counted in a Perkin Elmer Tri‐Carb counter.
For [^3H]rosuvastatin, data collection was performed at 5 and 7 min post i.p. injection. […] This avoids quantification bias caused by the formation of possible radiolabelled metabolites.
First, the vascular volume (V vasc, μL/g) was estimated for each mouse as the brain volume of distribution (V d) of [^14C]sucrose: […]

[2] = BBB integrity: vascular volume (V vasc) of [14C]sucrose after i.p. injection; format: in vivo, Swiss mice; settings: for Kp at 5 min: Swiss, mouse, brain/blood, ip, 0.31 MBq/kg, 5 min post i.p. injection
Procedure: as §1
First, the vascular volume (V vasc, μL/g) was estimated for each mouse as the brain volume of distribution (V d) of [^14C]sucrose:
[^14C]sucrose V d was calculated as the ratio of midbrain to blood carbon‐14 associated radioactivity (dpm/g) measured at 5 min post i.p. injection. Vvasc=Vdsucrose=Xsucrose,brain/Csucrose,blood
Where X sucrose,brain (dpm/g), is the calculated amount of [^14C]sucrose from the brain and C sucrose,blood (dpm/μL) its blood concentration. The data for any animal whose V vasc was an aberrant value was excluded from the study.
The vascular volume based [^14C]sucrose calculation was used as the outcome parameter for BBB integrity. Higher levels in V vasc indicate leakage of [^14C]sucrose into the brain parenchyma because of BBB leakage.

decrease of cerebral (brain) transport at P30 compared to P15 [1] [fold]	Kp at 5 min ([2]; mice at P5, brain/blood ratio, read-out: Vv, Mean)	Kp at 5 min ([2]; mice at P5, read-out: Vv, Median)	Kp at 5 min ([2]; mice at P15, brain/blood ratio, read-out: Vv, Mean)	Kp at 5 min ([2]; mice at P15, read-out: Vv, Median)	Kp at 5 min ([2]; mice at P30, brain/blood ratio, read-out: Vv, Mean)	Kp at 5 min ([2]; mice at P30, read-out: Vv, Median)	V vasc, comparison between ages ([2]; mice at P5, P15 and P30)	SMILES
6.8	–	–	–	–	–	–	–	CC(C)c1nc(N(C)S(C)(=O)=O)nc(-c2ccc(F)cc2)c1/C=C/[C@@H](O)C[C@@H](O)CC(=O)O [3H-Rosuvastatin, rosuvastatin]
–	0.0276	0.0235	0.0272	0.0256	0.0279	0.0292	did not differ between P5, P15, and P30	OC[C@H]1O[C@@](CO)(O[C@H]2O[C@H](CO)[C@@H](O)[C@H](O)[C@H]2O)[C@@H](O)[C@@H]1O [14C-Sucrose, sucrose]
